Literature values as cited in patent publication US8992947B2, “Method for predicting therapeutic effect of chemotherapy on renal cell cancer” (Taiho Pharmaceutical Co., Ltd., priority 2009, dated 2015).

Tested on: renal cell carcinoma
Settings: most effective agent in summary of 83 clinical test results

SMILES	response rate [%]
O=c1[nH]cc(F)c(=O)[nH]1 [5-fluorouracil (5-FU), 5-fluorouracil]	13.4
O=c1[nH]c(=O)n([C@H]2C[C@H](O)[C@@H](CO)O2)cc1F [floxuridine]	13.4
